This passage reports EC50 and IC50 results from patent US10316017B2, “COT modulators and methods of use thereof” (Gilead Sciences, Inc., priority 2015, dated 2019).

Test [1] has as its system TNFα production in LPS-stimulated human monocytes. Kind of test: Cot Monocyte TNFα Cell Based Assay. The note with it: Homo sapiens, Monocyte, read-out: EC50 TNF. Summed up:
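Cells at 5,000/well were pretreated with compound for 1 h at 37 °C (0.5% DMSO final), then stimulated with 50 pg/ml LPS for 4 h at 37 °C. Supernatant TNFα was measured by two-antibody TR-FRET after overnight room-temperature incubation; values are percent of control between unstimulated and stimulated wells.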

In test [2] the target is T1, human Cot catalytic domain (30-397 amino acids) (Homo sapiens, UniProt P41279).
T1 construct: Purified recombinant human Cot catalytic domain (30-397 amino acids) was purchased from Cama Biosciences; purchased Cama Biosciences (so in the source)
Kind of test: High Throughput Cot Biochemical Assay (KinEASE TR-FRET). The note with it: read-out: IC50 HTRF. The essentials:
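Reaction of 5 nM recombinant human Cot catalytic domain (aa 30-397) with 1 μM STK3 peptide (XL665-labeled) and 400 μM ATP in 10 mM MOPS pH 7.0, 10 mM MgOAc, 1 mM DTT, 0.5 mg/mL BSA, 0.1% DMSO. Phosphopeptide detected by TR-FRET with europium anti-phospho antibody.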

The mark [3] stands for this setting: TNFα in LPS-stimulated human monocytes.
[4] abbreviates: Cot KinEASE TR-FRET (HTRF) biochemical assay, 400 μM ATP.
Setting [5] is: Cot biochemical HTRF (KinEASE TR-FRET) assay.
[6] abbreviates: LPS-stimulated human monocytes, TNFα TR-FRET.
The mark [7] stands for this setting: Cot KinEASE TR-FRET, 400 μM ATP.

pEC50, pIC50: −log10 of the molar value. Read-outs that look alike come from different tables or passages of the source.

T1 sequence (P41279 30-397): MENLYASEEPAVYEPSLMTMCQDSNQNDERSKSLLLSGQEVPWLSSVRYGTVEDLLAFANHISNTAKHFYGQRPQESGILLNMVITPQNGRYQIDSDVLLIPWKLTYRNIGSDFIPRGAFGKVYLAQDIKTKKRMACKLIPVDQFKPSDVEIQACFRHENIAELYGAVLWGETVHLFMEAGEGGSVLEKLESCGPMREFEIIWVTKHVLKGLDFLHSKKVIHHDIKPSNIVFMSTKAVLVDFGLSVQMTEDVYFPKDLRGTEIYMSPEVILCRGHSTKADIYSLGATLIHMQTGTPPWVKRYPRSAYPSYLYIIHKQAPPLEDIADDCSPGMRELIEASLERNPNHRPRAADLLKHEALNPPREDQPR

Consider `[2H][C@@](Nc1cc(Cl)c2ncc(C#N)c(NCC(C)(C)C)c2c1)(c1cn(C2CC2)nn1)c1cccc(C#N)c1Cl` [Example 289, (S)-8-chloro-6-(((2-chloro-3-cyanophenyl)(1-cyclopropyl-1H-1,2,3-triazol-4-yl)methyl-d)amino)-4-(neopentylamino) quinoline-3-carbonitrile], for which the pEC50 (in general, −log10 of the EC50, conventionally taken in molar units) in test [1] (setting [3]) was 6.94. For the same molecule, the pIC50 – broadly, −log10 of the IC50, conventionally taken in molar units – in test [2] (setting [4]) is 8.40.
As for `N#Cc1cnc2c(Cl)cc(N[C@@H](c3ccc(F)cc3)c3cn(C4(C(F)(F)F)CC4)nn3)cc2c1Nc1cnc(F)c(F)c1` [Example 417, (S)-8-chloro-4-((5,6-difluoropyridin-3-yl)amino)-6-(((4-fluorophenyl)(1-(1-(trifluoromethyl)cyclopropyl)-1H-1,2,3-triazol-4-yl)methyl)amino)quinoline-3-carbonitrile], the pEC50 in test [1] (setting [3]) was 5.71. In test [2] (setting [5]), the negative-log IC50 (pIC50) was 7.13.
In the case of `N#Cc1cnc2c(Cl)cc(N[C@@H](c3cccc(C(F)(F)F)c3)c3cn(C4CC4)nn3)cc2c1Nc1cnc(F)c(F)c1` [Example 264, (S)-8-chloro-6-(((1-cyclopropyl-1H-1,2,3-triazol-4-yl)(3-(trifluoromethyl)phenyl)methyl)amino)-4-((5,6-difluoropyridin-3-yl)amino)quinoline-3-carbonitrile], the pEC50 in test [1] (setting [3]) is 6.25. Also, the pIC50 in test [2] (setting [4]) is 7.35.
Turning to `CC[C@@H](Nc1c(C#N)cnc2c(Cl)cc(N[C@@H](c3ccc(F)cc3)c3cn(-c4cccnc4)nn3)cc12)c1ccccc1` [Example 391, 8-chloro-6-(((S)-(4-fluorophenyl)(1-(pyridin-3-yl)-1H-1,2,3-triazol-4-yl)methyl)amino)-4-(((R)-1-phenylpropyl)amino)quinoline-3-carbonitrile], the pEC50 in test [1] (setting [3]) is 6.67. For the same molecule, in test [2] (setting [4]), the pIC50 was 7.77.
With `Cn1ccnc1-c1cccc([C@H](Nc2cc(Cl)c3ncc(C#N)c(Nc4cnc(F)c(F)c4)c3c2)c2c[nH]nn2)c1` [Example 386, (S)-8-chloro-4-((5,6-difluoropyridin-3-yl)amino)-6-(((3-(1-methyl-1H-imidazol-2-yl)phenyl)(1H-1,2,3-triazol-4-yl)methyl)amino)quinoline-3-carbonitrile], in test [1] (setting [3]), the negative-log EC50 (pEC50) was 5.84. Further, the pIC50 in test [2] (setting [4]) is 8.30.
On to `CC[C@@H](Nc1c(C#N)cnc2c(Cl)cc(N[C@H](c3c[nH]nn3)c3ccccc3F)cc12)c1ccccc1` [Example 444, 8-chloro-6-(((S)-(2-fluorophenyl)(1H-1,2,3-triazol-4-yl)methyl)amino)-4-(((R)-1 phenylpropyl)amino) quinoline-3-carbonitrile], for which the negative logarithm of the EC50 (pEC50) in test [1] (setting [3]) is 6.07. In addition, in test [2] (setting [5]), the pIC50 is 7.55.
`CC(C)(C)N1CCC(n2cc([C@@H](Nc3cc(Cl)c4ncc(C#N)c(N[C@@H]5CCCc6ccccc65)c4c3)c3ccccc3)nn2)CC1` [Example 487, 6-(((S)-(1-(1-(tert-butyl)piperidin-4-yl)-1H-1,2,3-triazol-4-yl)(phenyl)methyl)amino)-8-chloro-4-(((R)-1,2,3,4-tetrahydronaphthalen-1-yl)amino)quinoline-3-carbonitrile]: the pEC50 in test [1] (setting [3]) was 5.17. For the same molecule, the negative logarithm of the IC50 (pIC50) in test [2] (setting [5]) was 5.65.
Regarding `CCN1CCC(n2cnc(C(Nc3cc(Cl)c4ncc(C#N)c(Nc5ccc(F)c(Cl)c5)c4c3)c3ccccc3)c2)CC1` (stereo not shown) [Compound 27, 8-chloro-4-((3-chloro-4-fluorophenyl)amino)-6-(((1-(1-ethylpiperidin-4-yl)-1H-imidazol-4-yl)(phenyl)methyl)amino) quinoline-3-carbonitrile], in test [1] (setting [3]), the negative logarithm of the EC50 (pEC50) was 6.63. In addition, the pIC50 in test [2] (setting [4]) is 7.96.
The corresponding values for `[2H][C@@](Nc1cc(Cl)c2ncc(C#N)c(Nc3cnc(F)c(F)c3)c2c1)(c1cn(C2CC2)nn1)c1ccccc1Cl` [Example 358, (S)-8-chloro-6-(((2-chlorophenyl)(1-cyclopropyl-1H-1,2,3-triazol-4-yl)methyl-d)amino)-4-((5,6-difluoropyridin-3-yl)amino)quinoline-3-carbonitrile] are 6.17 and 7.92.
On to `Cc1cc(F)ccc1[C@H](Nc1cc(C#N)c2ncc(C#N)c(NCC(C)(C)C)c2c1)c1cn(C2(C(F)F)CC2)nn1` [Example 1083, (S)-6-(((1-(1-(difluoromethyl)cyclopropyl)-1H-1,2,3-triazol-4-yl)(4-fluoro-2-methylphenyl)methyl)amino)-4-(neopentylamino)quinoline-3,8-dicarbonitrile], for which, in test [1] (setting [6]), the negative-log EC50 (pEC50) was 7.20. In addition, the negative logarithm of the IC50 (pIC50) in test [2] (setting [7]) is 7.89.
As to `[2H][C@](Nc1cc(Cl)c2ncc(C#N)c(Nc3cnc(F)c(F)c3)c2c1)(c1ccccc1)c1c[nH]nn1` [Example 461, (S)-8-chloro-4-((5,6-difluoropyridin-3-yl)amino)-6-((phenyl(1H-1,2,3-triazol-4-yl)methyl-d)amino)quinoline-3-carbonitrile], in test [1] (setting [3]), the pEC50 is 5.81. For the same molecule, the pIC50 in test [2] (setting [5]) was 7.70.
Consider `CC(C)(C)CCNc1c(C#N)cnc2c(Cl)cc(N[C@@H](c3ccccc3)c3cn(C4CCN(C(C)(C)C)CC4)nn3)cc12` [Example 474, (S)-6-(((1-(1-(tert-butyl)piperidin-4-yl)-1H-1,2,3-triazol-4 yl)(phenyl)methyl)amino)-8-chloro-4-((3,3-dimethylbutyl)amino) quinoline-3-carbonitrile], for which the negative-log EC50 (pEC50) in test [1] (setting [3]) is 5.80. The pIC50 in test [2] (setting [5]) was 7.17.
Turning to `CC(C)(C)CNc1c(C#N)cnc2c(Cl)cc(N[C@@H](c3cccc(-n4cncn4)c3)c3cn(C4CC4)nn3)cc12` [Example 1031, (S)-6-(((3-(1H-1,2,4-triazol-1-yl)phenyl)(1-cyclopropyl-1H-1,2,3-triazol-4-yl)methyl)amino)-8-chloro-4-(neopentylamino)quinoline-3-carbonitrile], the pEC50 in test [1] (setting [6]) was 6.93. For the same molecule, the pIC50 in test [2] (setting [7]) is 9.00.
In the case of `CC(C)(C)N1CCC(n2cc([C@@H](Nc3cc(Cl)c4ncc(C#N)c(Nc5cnc(F)c(F)c5)c4c3)c3ccccc3)nn2)CC1` [Example 584, (S)-6-(((1-(1-(tert-butyl)piperidin-4-yl)-1H-1,2,3-triazol-4-yl)(phenyl)methyl)amino)-8-chloro-4-((5,6-difluoropyridin-3-yl)amino)quinoline-3-carbonitrile], the negative-log EC50 (pEC50) in test [1] (setting [3]) was 6.39. Further, in test [2] (setting [5]), the pIC50 was 8.00.
Taken in the same sequence, the figures for `N#Cc1cnc2c(Cl)cc(N[C@@H](c3ccccc3)c3c[nH]nn3)cc2c1Nc1ccc(F)c(Cl)c1` [Example 667, (S)-8-chloro-4-((3-chloro-4-fluorophenyl)amino)-6-((phenyl(1H-1,2,3-triazol-4-yl)methyl)amino)quinoline-3-carbonitrile] were 6.05 and 7.55.
In the case of `[2H][C@](Nc1cc(Cl)c2ncc(C#N)c(N[C@H]3CCCC[C@@H]3O)c2c1)(c1ccc(F)cc1)c1cn(C2CC2)nn1` [Example 236, 8-chloro-6-(((S)-(1-cyclopropyl-1H-1,2,3-triazol-4-yl)(4-fluorophenyl)methyl-d)amino)-4-(((1S,2S)-2-hydroxycyclohexyl)amino) quinoline-3-carbonitrile], the negative logarithm of the EC50 (pEC50) in test [1] (setting [3]) was 5.18. In addition, the pIC50 in test [2] (setting [4]) was 6.53.
Turning to `CC[C@@H](Nc1c(C#N)cnc2c(Cl)cc(N[C@H](c3cn(C4CC4)nn3)c3ccccc3-c3ccccc3)cc12)c1ccccc1` [Example 96, 6-(((S)[1,1'-biphenyl]-2-yl(1-cyclopropyl-1H-1,2,3-triazol-4-yl)methyl)amino)-8-chloro-4-(((R)-1-phenylpropyl)amino) quinoline-3-carbonitrile], in test [1] (setting [3]), the pEC50 is under 6.00. For the same molecule, the pIC50 in test [2] (setting [4]) is 6.11.
